Data: patent US20230090708A1, “METHODS AND COMPOSITIONS FOR THE TREATMENT OF HEMANGIOMA” (MASSEY VENTURES LIMITED, priority 2020, published 2023)
Values after ≈ are worked out from the molar mass of the structure shown. “Also recorded” adds a separate entry of the source. Read-outs that look alike come from different tables or passages of the source.

Columns and labels:
[1] = cited from earlier work
[2] = tested on: proliferating infantile hemangioma cells derived from multiple patients (n=5); assay: Example 4: single agents and combinations on five patient-derived cell lines, MTT; format: cell-based, human; conditions: for Individual Responders at 72 Hours with ≥30% Inhibition vs. Cells + Adjuvant: responders/cell lines; for Results Summary: 72 hours, n=5 cell lines; for Estimated Optimal Dosage Range in vitro / inhibition of all five patient-derived haemangioma cell lines: single agent
Protocol: An in vitro cell culture model of infantile hemangioma was developed to assess the impact of renin-angiotensin system inhibitors on cellular proliferation. A primary cell line of proliferating infantile hemangioma cells, including haemangioma stem cells, was derived from a tissue biopsy obtained from patients during the proliferating phase of the disease. The primary cell lines are cultured in 25 cm^2 flasks using standard culture media and conditions. The cultured cells are used to seed 96-well plates with a seed cell concentration of 2500 or 5000 cells per well, with additional culture media (200 μL). All studies are performed in triplicate. The plates are incubated overnight to allow cell adherence to the wells. The wells are photographed to confirm cell adherence and confluency. The appropriate drug(s) to be examined are subsequently added to the wells. After 24 hours, one set of plates (experimental and blank) is stopped. The media is aspirated from each well and stored frozen for possible future analyses. Media is added to the wells and an MTT determination is undertaken according to standard protocols. This is repeated at 48 and 72 hours. From the triplicate incubations of each drug concentration at each time, as well as for all controls, the mean±standard deviation is calculated. The net survival (optical density value) is calculated by subtracting the appropriate blank mean value from each cell culture. From the MTT data, the percentage of survival of cells in the presence of each concentration of drug after each time of culturing is determined. […] The experimental protocol was performed as per Example 1. Briefly, cells were seeded in 96-well plates at a concentration of 2500 cells/well in triplicate for each drug and drug combination. Drug(s) were added to each well 24 hours after seeding and re-dosed every 24 hours. Cell viability was assessed by MTT assay after 24, 48, and 72 hours. All plates were performed in triplicate. Drugs were assessed alone and in combination as described in Table 3.

[3] = tested on: proliferating hemangioma cells; assay: Experiment 7: different ACEi and beta blockers on one primary cell line, MTT; format: cell-based, human; conditions: for Results Summary: 72 hours, one cell line; for inhibition at 1 µM / inhibition at 10 µM: Homo sapiens, 72 h, read-out: Inhibition vs. Cells + Adjuvant at 72 Hours
Protocol: (§1) An in vitro cell culture model of infantile hemangioma was developed to assess the impact of renin-angiotensin system inhibitors on cellular proliferation. A primary cell line of proliferating infantile hemangioma cells, including haemangioma stem cells, was derived from a tissue biopsy obtained from patients during the proliferating phase of the disease. The primary cell lines are cultured in 25 cm^2 flasks using standard culture media and conditions. The cultured cells are used to seed 96-well plates with a seed cell concentration of 2500 or 5000 cells per well, with additional culture media (200 μL). All studies are performed in triplicate.
The plates are incubated overnight to allow cell adherence to the wells. The wells are photographed to confirm cell adherence and confluency. The appropriate drug(s) to be examined are subsequently added to the wells. […] The media is aspirated from each well and stored frozen for possible future analyses. Media is added to the wells and an MTT determination is undertaken according to standard protocols.
(§2) From the triplicate incubations of each drug concentration at each time, as well as for all controls, the mean±standard deviation is calculated. The net survival (optical density value) is calculated by subtracting the appropriate blank mean value from each cell culture. From the MTT data, the percentage of survival of cells in the presence of each concentration of drug after each time of culturing is determined.
Briefly, cells were seeded in 96-well plates at concentrations of 2500 cells/well in triplicate for each drug and drug combination. […] All plates were performed in triplicate. Beta blockers used in the study were (±)-propranolol, R-propranolol, S-propranolol, timolol, and betaxalol.

[4] = cited from earlier work; remark: listed apart in the source
[5] = tested on: proliferating hemangioma cell lines (n=9); assay: Example 6: single agents and combinations on nine primary cell lines, MTT, CompuSyn combination index; format: cell-based, human; conditions: 1 to 10 μM; 72 hours; n=9
Protocol: as §1
The plates are incubated overnight to allow cell adherence to the wells. The wells are photographed to confirm cell adherence and confluency. The appropriate drug(s) to be examined are subsequently added to the wells. After 24 hours, one set of plates (experimental and blank) is stopped. The media is aspirated from each well and stored frozen for possible future analyses. Media is added to the wells and an MTT determination is undertaken according to standard protocols. This is repeated at 48 and 72 hours.
as §2
A study was undertaken using combinations of ACE inhibitors, beta blockers and angiotensin II type 2 receptor blockers to inhibit proliferating hemangioma cells. […] Patient histories pertaining to each cell line is described in Table 5.
The experimental protocol was performed as per Example 1. Briefly, cells were seeded in 96-well plates at concentrations of 2500 cells/well in triplicate for each drug and drug combination. Drug(s) were added to each well 24 hours after seeding and re-dosed every 24 hours. Cell viability was assessed by MTT assay after 24, 48, and 72 hours. All plates were performed in triplicate. Drugs were assessed alone and in combination, as described in Table 6. Propranolol was used as a model beta blocker, cilazapril as a model ACE inhibitor, and SMM02 (L-159686) as a model AT2Ri. Synergy was measured using the CompuSyn open-source software protocol for quantifying synergism and antagonism that uses the median-effect equation and mass-action laws to generate a combination index (www.compusyn.com). Synergism, additive effects and antagonism are defined as a CI<1, CI=1, and CI>1, respectively.

[6] = cited from earlier work; remark: listed apart in the source
ACE = ACE (Homo sapiens, UniProt P12821); conditions: enzyme source not given; cited from earlier work
[7] = in words; cited from earlier work
[8] = tested on: proliferating infantile haemangioma cells; assay: Example 2: single 100 μM dose on primary haemangioma cell line, MTT; format: cell-based, human; conditions: for inhibitory effect on haemangioma cell proliferation: 24, 48, 72 hours
Protocol: An in vitro cell culture model of infantile hemangioma was developed to assess the impact of renin-angiotensin system inhibitors on cellular proliferation. A primary cell line of proliferating infantile hemangioma cells, including haemangioma stem cells, was derived from a tissue biopsy obtained from patients during the proliferating phase of the disease. The primary cell lines are cultured in 25 cm^2 flasks using standard culture media and conditions. The cultured cells are used to seed 96-well plates with a seed cell concentration of 2500 or 5000 cells per well, with additional culture media (200 μL). All studies are performed in triplicate. The plates are incubated overnight to allow cell adherence to the wells. The wells are photographed to confirm cell adherence and confluency. The appropriate drug(s) to be examined are subsequently added to the wells. After 24 hours, one set of plates (experimental and blank) is stopped. The media is aspirated from each well and stored frozen for possible future analyses. Media is added to the wells and an MTT determination is undertaken according to standard protocols. This is repeated at 48 and 72 hours. From the triplicate incubations of each drug concentration at each time, as well as for all controls, the mean±standard deviation is calculated. The net survival (optical density value) is calculated by subtracting the appropriate blank mean value from each cell culture. From the MTT data, the percentage of survival of cells in the presence of each concentration of drug after each time of culturing is determined. […] This model recapitulates the process of locally administering the drug directly to the hemangioma microenvironment, which is representative of diffusing the drug through skin to reach the target cells.

proliferating IH = conditions: topical 0.5% solution or gel; cited from earlier work

ACE, sequence (P12821 30-1306, species assumed): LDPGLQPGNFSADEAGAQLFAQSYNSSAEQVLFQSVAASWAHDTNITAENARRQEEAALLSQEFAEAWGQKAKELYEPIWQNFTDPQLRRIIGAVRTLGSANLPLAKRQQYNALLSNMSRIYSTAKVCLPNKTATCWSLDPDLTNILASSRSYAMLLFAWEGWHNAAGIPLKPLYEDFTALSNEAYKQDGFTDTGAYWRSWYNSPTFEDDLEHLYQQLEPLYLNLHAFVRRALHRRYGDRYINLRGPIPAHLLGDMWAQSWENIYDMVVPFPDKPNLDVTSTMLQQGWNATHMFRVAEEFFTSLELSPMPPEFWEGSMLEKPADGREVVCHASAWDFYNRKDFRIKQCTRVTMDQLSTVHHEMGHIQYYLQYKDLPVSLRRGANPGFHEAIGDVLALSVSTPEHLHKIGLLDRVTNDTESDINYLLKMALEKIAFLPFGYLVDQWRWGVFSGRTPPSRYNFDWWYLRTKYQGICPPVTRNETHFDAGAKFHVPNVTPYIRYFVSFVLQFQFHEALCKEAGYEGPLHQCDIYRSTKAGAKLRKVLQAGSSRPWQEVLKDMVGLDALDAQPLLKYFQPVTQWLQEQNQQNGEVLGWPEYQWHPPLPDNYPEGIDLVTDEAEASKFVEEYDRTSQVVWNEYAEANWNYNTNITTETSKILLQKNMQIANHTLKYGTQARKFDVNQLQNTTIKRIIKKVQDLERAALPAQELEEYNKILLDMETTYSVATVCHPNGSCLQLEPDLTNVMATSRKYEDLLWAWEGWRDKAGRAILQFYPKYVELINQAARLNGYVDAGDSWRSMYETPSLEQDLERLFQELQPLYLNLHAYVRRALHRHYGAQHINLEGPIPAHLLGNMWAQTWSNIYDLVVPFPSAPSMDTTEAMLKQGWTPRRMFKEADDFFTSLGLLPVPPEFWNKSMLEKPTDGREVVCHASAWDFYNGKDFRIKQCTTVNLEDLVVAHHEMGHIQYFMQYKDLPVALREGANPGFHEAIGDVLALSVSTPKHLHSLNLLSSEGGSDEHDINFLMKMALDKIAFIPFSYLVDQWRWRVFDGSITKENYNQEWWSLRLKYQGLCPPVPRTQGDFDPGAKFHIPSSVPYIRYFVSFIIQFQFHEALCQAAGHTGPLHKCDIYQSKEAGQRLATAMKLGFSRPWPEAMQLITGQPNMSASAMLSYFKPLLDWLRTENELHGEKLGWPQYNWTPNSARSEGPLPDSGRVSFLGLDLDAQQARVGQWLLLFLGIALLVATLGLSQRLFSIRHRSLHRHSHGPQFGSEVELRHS

Structure (SMILES): CCOC(=O)[C@H](CCc1ccccc1)N[C@H]1CCCN2CCC[C@@H](C(=O)O)N2C1=O [Cilazapril]
- Solubility [1]: 5000 µg/mL (≈ 12 mM)
- Individual Responders at 72 Hours with ≥30% Inhibition vs. Cells + Adjuvant ([2]; 1 μM): 1 μM - 1/5
- Individual Responders at 72 Hours with ≥30% Inhibition vs. Cells + Adjuvant ([2]; 10 μM): 10 μM - 4/5
- Results Summary [2]: Responder
- Estimated Optimal Dosage Range in vitro [2]: 1 to 10 µM
- inhibition of all five patient-derived haemangioma cell lines [2]: significantly inhibited
- inhibition of proliferating hemangioma cells ([3]; 1 μM and 10 μM): good and similar level of inhibition
- Results Summary [3]: Responder
- inhibition at 1 µM [3]: 4.35%
- inhibition at 10 µM [3]: 60.5%
- Log P ([4]; Table 1): 0.8
- log P [4]: 0.8
- dose-response across all cell lines [5]: typical dose-response
- pKa [6]: 3.4
- pKa ([6]; second value): 6.5
- IC50 (ACE): 4 nM
- Half life: short or long acting [7]: Long acting
- inhibitory effect on haemangioma cell proliferation [8]: diminishes over time
- increase in the inhibition of haemangioma cell proliferation compared to timolol ([8]; 24 hours): 7 fold

Structure (SMILES): CC(C)(C)NC[C@H](O)COc1nsnc1N1CCOCC1 [Timolol]
- Individual Responders at 72 Hours with ≥30% Inhibition vs. Cells + Adjuvant ([2]; 1 μM): 1 μM - 0/5
- Individual Responders at 72 Hours with ≥30% Inhibition vs. Cells + Adjuvant ([2]; 10 μM): 10 μM - 4/5
- Results Summary [2]: Responder
- Estimated Optimal Dosage Range in vitro [2]: 1 to 10 µM
- inhibition of all five patient-derived haemangioma cell lines [2]: significantly inhibited
- Results Summary [3]: Responder
- inhibition at 1 µM [3]: 11.1%
- inhibition at 10 µM [3]: 57%
- clinical response (proliferating IH): clinically beneficial response
- inhibitory effect on haemangioma cell proliferation [8]: little effect; also recorded: consistent
